Results: patent US8623832B2, “Peptide compositions that bind TLR-4” (The Board of Regents of the University of Oklahoma, priority 2011, dated 2014)

Tests used:
JAWS II dendritic cells = test: LPS-induced TNF-α release by JAWS II dendritic cells (ELISA); type: cell-based, mouse; conditions: for LPS-induced TNF-α secretion, pre-LPS model: peptide 1 or 10 μM 1 hour prior to LPS 75 ng/ml, total 5 hours; for LPS-induced TNF-α, mean values: post-LPS model
Procedure: JAWS II dendritic cell culture: The JAWS II dendritic cell line is an immortalized cell line derived from bone marrow of C57BL/6 mice (ATCC, Manassas, Va.). The cells were maintained in Alpha-modified minimum essential medium (Sigma, St Louis, Mo.) supplemented with 20% fetal bovine serum (FBS), 4 mM L-glutamine, 100 U/ml penicillin, 100 μg/ml streptomycin, 50 μg/ml gentamicin (Invitrogen, Grand Island, N.Y.) and 5 ng/ml of recombinant murine granulocyte macrophage-colony stimulating factor (Peprotech, Rocky Hill, N.J.). (Awasthi et al., 2005). The culture medium was replaced with fresh medium every 48 h.
The JAWS II dendritic cells (1 million) were treated with SP-A peptides (1 or 10 μM) with or without E. coli derived LPS (75 ng/ml, highly purified, low protein, Calbiochem, CA). In order to observe the anti-inflammatory properties of the SP-A peptides, the cells were treated with peptides for 1 hour prior to addition of LPS (pre-LPS treatment) or after 4 hours incubation with LPS (Post-LPS treatment). The incubation was continued for a total period of 5 hours. Control cells were treated with vehicle, LPS (75 ng/ml), and/or SP-A peptides (1 and 10 μM) for a period of 5 hours. The cell-free supernatants were collected and stored at −80° C. for further analysis.
Cytokine (TNF-α) measurement: The TNF-α levels were measured in cell-free supernatants of JAWS II dendritic cells treated with LPS with or without SP-A peptides by enzyme linked immunosorbent assay (ELISA) as described earlier (Awasthi and Cox, 2003).

[1] = tested on: primary adult baboon lung DCs and fetal baboon lung DC-precursor cells; test: Phagocytosis of pHrodo-labeled E. coli bioparticles by primary baboon lung DCs / fetal DC-precursor cells; type: cell-based; conditions: SP-A 2 μM, TLR4-MD2 0.3 μM
Procedure: Freshly collected lobe of the lung or whole lung samples of adult and fetal baboons were transported on ice in RPMI 1640 medium containing 2 mM glutamine, 1 mM HEPES, 10 μg/ml gentamicin, 100 U/ml penicillin, 100 μg/ml streptomycin and 10% FBS. After a mild mechanical disruption, the single cell suspension was seeded in a tissue culture flask (Nalge-Nunc International Corp, NY) at a density of 30-50×10^6 leukocytes/175 cm^2 flask in RPMI 1640 medium containing 2 mM glutamine, 1 mM HEPES, 10 μg/ml gentamicin, 100 U/ml penicillin, 100 μg/ml streptomycin and 10% FBS. The light-density DC-populations were harvested using OptiPrep cell-separation solution (density 1.32 g/ml, Accurate Chemicals, NY) (Awasthi and Cooper, 2006; Awasthi et al., 2009). The immunophenotype and basic characteristics of the lung DC-population isolated from fetal and adult baboons have been described earlier (Awasthi et al., 2009). Here, first the immunophenotype of KG-1-derived DCs and fetal baboon lung DC-precursors or adult baboon lung DCs were compared by flow cytometry. Briefly, cells were suspended in Dulbecco's phosphate buffered saline (DPBS) containing 1% FBS and 0.09% sodium azide and incubated with fluorochrome-conjugated antibodies to HLA-DP, DQ, DR, CD11c, CD40, CD80, CD86 (typical DC-markers) as described earlier.
(§1) After confirming that the fluorescence is of phagocytosed bioparticles, comprehensive experiments were performed in presence and absence of effector molecules (SP-A and TLR4-MD2 proteins). […] The fluorescence readings were taken at 550 nm excitation and 600 nm emission wavelengths using SpectraMax M2 spectrofluorometer (Molecular Devices, CA).
(§2) The phagocytosis index was calculated by subtracting the average fluorescence intensity of the reaction with bioparticles alone from the control (basal without any effector molecules) and experimental wells. Finally, the percent effect was calculated using the following formula: % effect=(Net experimental phagocytosis/Net basal phagocytosis)×100%

[2] = tested on: primary adult baboon lung DCs and fetal baboon lung DC-precursor cells; test: TNF-α secretion against E. coli by baboon lung DCs (ELISA); type: cell-based; conditions: 3 hours phagocytosis reaction; protein added alone
Procedure: After confirming that the fluorescence is of phagocytosed bioparticles, comprehensive experiments were performed in presence and absence of effector molecules (SP-A and TLR4-MD2 proteins). The cells were pulsed with purified, native baboon lung SP-A and recombinant human TLR4-MD2 or MD2 proteins (RnD Systems, MN) for an hour prior to phagocytosis assay with pHrodo-conjugated, heat-killed E. coli K12 bioparticles (Invitrogen-Molecular Probes, CA). MD2 protein was also included, because SP-A is known to interact with MD2, and it was questioned if MD2 can influence the immune functions of DC-population. The assay was performed in serum-free Opti-MEM medium (Invitrogen, CA), as described by the manufacturer (Invitrogen-Molecular Probes, CA). The assay mixtures were incubated for another 3 hours at 37° C. in 5% CO2 incubator. The fluorescence readings were taken at 550 nm excitation and 600 nm emission wavelengths using SpectraMax M2 spectrofluorometer (Molecular Devices, CA).
Cytokine (TNF-α) measurement: The TNF-α levels were measured in cell-free supernatants by enzyme linked immunosorbent assay (ELISA) using a commercially available kit (eBioscience, CA), as per the manufacturer's instructions. Briefly, the microwells of a 96 well plate were coated with diluted purified anti-human TNF-α antibody. The wells were washed, and nonspecific sites were blocked. Diluted recombinant human TNF-α (7.8-500 pg/ml standard) and cell-free-supernatant (1:10) were added to the antibody-coated wells, and the plate was incubated overnight at 4° C. The next day, the plate was washed and incubated with biotin-conjugated anti-human TNF-α antibody followed by avidin-horseradish peroxidase and substrate solution. The reaction was stopped by adding 2 N H2SO4 and read at 450 nm (Molecular Devices, CA).

KG-1-derived DCs = test: Phagocytosis of pHrodo-labeled E. coli bioparticles by KG-1-derived DCs; type: cell-based, human; conditions: MD2 alone 0.02-0.2 μM
Text: Phagocytosis assay: In this Example, pHrodo-conjugated, heat-killed E. coli K12 (encapsulated) bioparticles (Invitrogen-Molecular Probes, CA) were employed. The pHrodo-fluorescent label offers an advantage over other conventional methods, in that it fluoresces only in acidic conditions (i.e., after the bioparticles are taken inside the intracellular lysosomes) (Invitrogen-Molecular Probes, CA). To ensure that the fluorescence relates to phagocytosed pHrodo-conjugated E. coli bioparticles only, the phagocytosis reaction mix was imaged by confocal microscopy. […]
as §1, §2

SPA2: 20-mer synthetic peptide derived from the C-terminal Carbohydrate Recognition Domain of human SP-A (PAGRGKEQCVEMYTDGQWND; listed as Homo sapiens)
LPS-induced TNF-α secretion, pre-LPS model (JAWS II dendritic cells): slight increase

SPA3: 20-mer synthetic peptide derived from the C-terminal Carbohydrate Recognition Domain of human SP-A (VNYTNWYRGEPAGRGKEQCV; listed as Homo sapiens)
LPS-induced TNF-α secretion, pre-LPS model (JAWS II dendritic cells): slight increase

SPA5: 20-mer synthetic peptide from C-terminal CRD of human SP-A; contains the first 10 amino acids of the SPA4 peptide (YVGLTEGPSPGDFRYSDGTP; listed as Homo sapiens)
secretion of TNF-α, post-LPS model (JAWS II dendritic cells; peptide added after 4 hours LPS 75 ng/ml, both 1 and 10 μM): inhibited the secretion of TNF-α
LPS-induced TNF-α, mean values (JAWS II dendritic cells; 1 μM peptide): 8284 pg/mL
LPS-induced TNF-α, mean values (JAWS II dendritic cells; 10 μM peptide): 6319 pg/mL

SPA7: 20-mer synthetic peptide derived from the C-terminal Carbohydrate Recognition Domain of human SP-A (SLQGSIMTVGEKVFSSNGQS; listed as Homo sapiens)
LPS-induced TNF-α secretion, pre-LPS model (JAWS II dendritic cells): slight increase

TLR4-MD2: soluble mixture of recombinant human TLR4 extracellular domain and MD2 proteins (R&D Systems) [reference compound]
phagocytic uptake of E. coli [1]: increased
secretion of TNF-α by DCs in response to E. coli [2]: increased the TNF-α secretion significantly

B1: MD2: recombinant human MD-2 protein, adaptor molecule for TLR4 (R&D Systems) (protein, listed as Homo sapiens)
chain: MLPFLFFSTLFSSIFTEAQKQYWVCNSSDASISYTYCDKMQYPISINVNPCIELKGSKGLLHIFYIPRRDLKQLYFNLYITVNTMNLPKRKEVICRGSDDDYSFCRALKGETVNTTISFSFKGIKFSKGKYKCVVEAISGSPEEMLFCLEFVILHQPNSN
effect on phagocytosis of E. coli bioparticles (KG-1-derived DCs): did not affect the phagocytosis
